Assay results: US20230117034A1, “PYRAZOLOTRIAZINES” (Bayer Aktiengesellschaft, priority 2019, published 2023)
Read-outs that look alike come from different tables or passages of the source.

Assays:
Format in all cases: cell-based
[1] = target: T1, CDK12 protein level in CAL-120 breast cancer cells (Homo sapiens, UniProt Q9NYV4); assay: CDK12 protein level: Protein Simple (CDK12, CAL-120); conditions: CAL-120 cells, 18 h with compound, CDK12/HSP90 peak area ratio vs vehicle, median, read-out: CDK12 protein level in CAL-120 breast ca cells, DC50-[mol/l] (median)
T1 construct: endogenous in cells; host or cells: CAL-120 human breast cancer cells (DSMZ ACC 459)
T1 sequence (Q9NYV4 whole entry): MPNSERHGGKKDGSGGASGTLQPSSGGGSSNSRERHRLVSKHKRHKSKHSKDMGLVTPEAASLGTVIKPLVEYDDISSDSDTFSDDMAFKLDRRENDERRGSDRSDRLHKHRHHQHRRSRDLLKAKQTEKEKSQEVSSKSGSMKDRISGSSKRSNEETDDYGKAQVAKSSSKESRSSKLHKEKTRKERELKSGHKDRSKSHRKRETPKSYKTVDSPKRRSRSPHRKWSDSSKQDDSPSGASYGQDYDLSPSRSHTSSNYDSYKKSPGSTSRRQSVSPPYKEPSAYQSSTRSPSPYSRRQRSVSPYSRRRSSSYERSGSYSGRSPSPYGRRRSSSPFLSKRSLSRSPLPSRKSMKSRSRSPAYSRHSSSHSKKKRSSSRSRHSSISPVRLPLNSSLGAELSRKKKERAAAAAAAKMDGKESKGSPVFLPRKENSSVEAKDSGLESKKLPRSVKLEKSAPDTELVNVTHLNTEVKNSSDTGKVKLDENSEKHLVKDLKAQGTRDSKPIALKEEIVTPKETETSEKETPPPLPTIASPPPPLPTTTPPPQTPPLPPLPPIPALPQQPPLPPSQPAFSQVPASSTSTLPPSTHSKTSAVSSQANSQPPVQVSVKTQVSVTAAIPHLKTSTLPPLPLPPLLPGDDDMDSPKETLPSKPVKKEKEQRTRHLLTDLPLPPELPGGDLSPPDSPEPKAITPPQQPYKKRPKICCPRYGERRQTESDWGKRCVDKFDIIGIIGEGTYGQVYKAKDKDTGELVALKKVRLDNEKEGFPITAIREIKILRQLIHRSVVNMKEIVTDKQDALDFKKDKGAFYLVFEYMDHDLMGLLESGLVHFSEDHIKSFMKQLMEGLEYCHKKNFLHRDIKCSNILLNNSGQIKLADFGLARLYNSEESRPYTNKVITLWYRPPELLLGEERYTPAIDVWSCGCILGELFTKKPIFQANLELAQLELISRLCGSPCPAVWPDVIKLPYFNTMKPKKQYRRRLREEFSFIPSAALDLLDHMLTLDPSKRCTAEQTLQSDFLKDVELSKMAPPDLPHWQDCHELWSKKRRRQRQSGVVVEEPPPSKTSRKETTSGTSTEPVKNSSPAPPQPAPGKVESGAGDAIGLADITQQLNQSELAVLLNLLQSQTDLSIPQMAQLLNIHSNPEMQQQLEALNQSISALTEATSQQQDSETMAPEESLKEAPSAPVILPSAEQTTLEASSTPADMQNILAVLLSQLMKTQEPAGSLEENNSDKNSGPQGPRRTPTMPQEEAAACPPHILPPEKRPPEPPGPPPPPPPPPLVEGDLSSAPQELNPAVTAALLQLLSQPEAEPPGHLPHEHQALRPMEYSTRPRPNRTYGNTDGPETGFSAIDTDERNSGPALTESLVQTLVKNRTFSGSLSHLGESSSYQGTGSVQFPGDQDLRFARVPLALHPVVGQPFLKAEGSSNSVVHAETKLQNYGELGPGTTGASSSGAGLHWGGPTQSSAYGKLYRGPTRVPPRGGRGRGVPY
T1 sequence (O75909 whole entry partner): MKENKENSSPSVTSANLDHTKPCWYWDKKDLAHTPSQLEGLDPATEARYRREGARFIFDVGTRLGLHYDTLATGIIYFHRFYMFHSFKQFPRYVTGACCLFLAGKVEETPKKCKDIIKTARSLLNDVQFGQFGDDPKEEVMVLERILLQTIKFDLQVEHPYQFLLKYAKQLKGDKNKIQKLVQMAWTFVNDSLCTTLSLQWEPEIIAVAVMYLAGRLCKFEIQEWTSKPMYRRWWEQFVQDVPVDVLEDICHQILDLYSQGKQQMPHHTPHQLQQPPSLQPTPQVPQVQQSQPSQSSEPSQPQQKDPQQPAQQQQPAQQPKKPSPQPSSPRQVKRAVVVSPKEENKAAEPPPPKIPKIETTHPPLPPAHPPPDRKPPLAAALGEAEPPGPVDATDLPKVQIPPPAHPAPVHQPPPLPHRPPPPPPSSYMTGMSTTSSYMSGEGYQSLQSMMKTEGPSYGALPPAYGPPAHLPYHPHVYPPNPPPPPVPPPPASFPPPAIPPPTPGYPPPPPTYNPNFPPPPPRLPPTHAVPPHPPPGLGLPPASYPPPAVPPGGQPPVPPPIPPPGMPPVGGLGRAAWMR
Procedure: CAL-120 human breast cancer cells (DSMZ ACC 459) were seeded at 300,000 cells/well in 6-well plates containing 2 mL of growth medium (DMEM, 10% FCS, glutamine) and incubated for 24 h at 37° C. in an humidified incubator. Test compounds were added at various concentrations, control wells received solvent (DMSO), and the plates were incubated for another 18 h at 37° C. Cells were washed 2 times with PBS and lysed in 75 microL lysis buffer (MSD-Puffer (MSD, #R60TX-2), +1% 505S+PhosSTOP (Roche #04906837001)+complete mini (Roche #04693159001)) by scraping. The lysates were pushed 2 times through Qiashedders followed by centrifugation at 14,000 rpm for 30-50 sec. The supernatant was stored at −20° C. Proteins were separated by applying 0.4 microgramms of protein lysate to Protein Simple 66-440 kDa (Protein Simple #SM-S002) size assay columns on a PEGGY SUE or SALLY SUE equipment according to the supplier's manual. CDK12 and HSP90 (loading control) were detected using anti-human CDK12 antibody (Cell Signaling Technologies (CST) #11793) at 1:25 dilution and anti-human HSP90 antibody (CST #4877) at 1:5,000 dilution. CDK12 and HSP90 peak areas were determined using Protein Simple Compass software. Ratio of CDK12/HSP90 peak areas were calculated for each sample, and […] values (degrading concentration to achieve 50% reduction relative to vehicle treated control) were determined by means of a 4 parameter fit.

[2] = tested on: MDA-MB-231, human breast cancer cells; assay: Proliferation assay MDA-MB-231 (crystal violet, 4 days); conditions: MDA-MB-231 cells, median, read-out: Prolif-MDA MB-231, IC50-[mol/l] (median)
In short: (§1)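 Cells seeded at 4,000/well in medium with 10% FCS; after 24 h, compounds added at 0.01-10 µmol/L (0.1% DMSO) for 4 days. Glutaraldehyde-fixed, crystal violet-stained, absorbance at 595 nm normalized to zero-point plate (0%) and untreated cells (100%); IC50 by 4-parameter fit.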

[3] = tested on: CAL-120, human breast adenocarcinoma cells; assay: Proliferation assay CAL-120 (crystal violet, 4 days); conditions: CAL-120 cells, median, read-out: Prolif-CAL-120, IC50-[mol/l] (median)
In short: as §1

[4] = target: T2, CYCLIN K (nuclear staining in CAL-120 cells) (Homo sapiens, UniProt O75909); assay: CYCLIN K nuclear protein level: immunofluorescence high content analysis (CAL-120); conditions: 24 h, 50% reduction of nuclear CCNK staining intensity, median, read-out: CYCLIN K degradation IF, DC50-[mol/l] (median)
T2 construct: endogenous in cells; host or cells: CAL-120 human breast cancer cells (DSMZ ACC 459)
T2 sequence (O75909 whole entry): as the sequence (O75909 whole entry partner) above
T2 sequence (Q9NYV4 whole entry partner): as the sequence (Q9NYV4 whole entry) above
In short: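 CAL-120 breast cancer cells treated in dose-response for 24 h at 37 °C, PFA-fixed and immunostained for cyclin K with Hoechst counterstain. Confocal imaging quantified nuclear intensity; DC50 is the concentration giving 50% reduction of nuclear CCNK staining, normalized to DMSO and control.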

[5] = target: T3, CDK12 (nuclear staining in CAL-120 cells) (Homo sapiens, UniProt Q9NYV4); assay: CDK12 nuclear protein level: immunofluorescence/high content analysis (CAL-120); conditions: for DC50: CAL-120 cells, 24 h, immunofluorescence, 50% reduction of nuclear CDK12 staining intensity, median, read-out: CDK12 degradation IF, DC50- [mol/l] (median); for (IC50 CDK12 high ATP) to (Degradation DC50 CDK12) ratio: ratio of IC50 CDK12 high ATP kinase assay to DC50 CDK12 degradation (IF, CAL-120)
T3 construct: endogenous in cells; host or cells: CAL-120 human breast cancer cells (DSMZ ACC 459)
T3 sequence (Q9NYV4 whole entry): as above
T3 sequence (O75909 whole entry partner): as the sequence (O75909 whole entry partner) above
In short: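 CAL-120 cells were treated with compound for 24 h at 37 °C, fixed with PFA and immunostained for CDK12. Nuclear CDK12 intensity was quantified by automated image analysis and normalized to DMSO and control. DC50 is the concentration giving 50% reduction of nuclear staining.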

SMILES	DC50 [1] [nM]	IC50 ([2]; Homo sapiens, MDA-MB-231, 96 h) [nM]	IC50 ([3]; Homo sapiens, CAL-120, 96 h) [nM]	DC50 [4] [nM]	DC50 [5] [nM]	(IC50 CDK12 high ATP) to (Degradation DC50 CDK12) ratio [5]	IC50 [2] [nM]	IC50 [3] [nM]
Cc1ccnc2[nH]c(CNc3nc(N4CCOCC4)nc4c(Br)cnn34)nc12 [Example 20, 8-bromo-N-[(7-methyl-3H-imidazo[4,5-b]pyridin-2-yl)methyl]-2-(morpholin-4-yl)pyrazolo[1,5-a][1,3,5]triazin-4-amine]	2.6	31	14.2	1.35	2.57	681		
Brc1cnn2c(NCc3nnc(-c4ccccc4)[nH]3)nc(N3CCOCC3)nc12 [Example 24, 8-bromo-2-(morpholin-4-yl)-N-[(5-phenyl-4H-1,2,4-triazol-3-yl)methyl]pyrazolo[1,5-a][1,3,5]triazin-4-amine]	9.33	53.3	35.7	1.67	7.78	564		
Brc1cnn2c(NCc3nc4ccncc4[nH]3)nc(N3CCOCC3)nc12 [Example 22, 8-bromo-N-[(3H-imidazo[4,5-c]pyridin-2-yl)methyl]-2-(morpholin-4-yl)pyrazolo[1,5-a][1,3,5]triazin-4-amine]	118	593			99	40		
Brc1cnn2c(NCc3nc4c([nH]3)CCCC4)nc(N3CCOCC3)nc12 [Example 21, 8-bromo-2-(morpholin-4-yl)-N-[(4,5,6,7-tetrahydro-1H-benzimidazol-2-yl)methyl]pyrazolo[1,5-a][1,3,5]triazin-4-amine]	> 100	285	161		186	52		
CC1CN(C)CCN1c1nc(NCc2nc3ccccc3[nH]2)n2ncc(Br)c2n1 (single isomer, unassigned; enantiomer 1) [Example 260, N-(1H-benzimidazol-2-ylmethyl)-8-bromo-2-[(2R or S)-2,4-dimethylpiperazin-1-yl]pyrazolo[1,5-a][1,3,5]triazin-4-amine (Enantiomer 1)]	< 1			0.152	1.78	6819	13.4	6.03
Fc1ccc2[nH]c(CNc3nc(N4CCOCC4)nc4c(Br)cnn34)nc2c1F [Example 25, 8-bromo-N-[(4,5-difluoro-1H-benzimidazol-2-yl)methyl]-2-(morpholin-4-yl)pyrazolo[1,5-a][1,3,5]triazin-4-amine]	< 1		2.62	0.263	0.674	1084		
Brc1cnn2c(NCc3ncc(-c4ccccc4)[nH]3)nc(N3CCOCC3)nc12 [Example 23, 8-bromo-2-(morpholin-4-yl)-N-[(5-phenyl-1H-imidazol-2-yl)methyl]pyrazolo[1,5-a][1,3,5]triazin-4-amine]	< 1	33.9		1.02	3.45	452		
C[C@@H]1CN(c2nc(NCc3nc4ccccc4[nH]3)n3ncc(C4CC4)c3n2)C[C@H](C)N1 [Example 248, N-[(1H-benzimidazol-2-yl)methyl]-8-cyclopropyl-2-[(3R,5S)-3,5-dimethylpiperazin-1-yl]pyrazolo[1,5-a][1,3,5]triazin-4-amine]		12	3.13	0.648	0.946	9730		
